# Assay results: US8765669B2, “Glycosylated GLP-1 peptide” (Glytech, Inc., priority 2008, dated 2014)
# No end group written: not given here.
# Assays:
# [1] = biological target: T1, DPP-IV (dipeptidyl peptidase IV from porcine kidney) (Sus scrofa, UniProt P22411); assay: Test of resistance to dipeptidyl peptidase IV (DPP-IV); format: in vitro ADME; conditions: half-life (t1/2) in DPP-IV solution at 37° C., GLP-1 of Comparative Example 1 defined as standard (=1)
# T1 construct: dipeptidyl peptidase IV from porcine kidney, product of SIGMA; purchased SIGMA; host or cells: porcine kidney (tissue-derived enzyme)
# Procedure: Each solution mixture was adjusted with 100 mM sodium phosphate buffer to 100 μl in total and allowed to react at 37° C. A 10 μaliquot of the reaction solution was mixed with 15 μl of 10% trifluoroacetic acid prepared in advance in another Eppendorf tube.
# C57BL/6JJcl mice = assay: Oral Glucose Tolerance Test (OGTT); format: in vivo
# Procedure: After 30 minutes, a glucose solution was orally administered at a dose of 1 mg/g. Blood was collected from the orbits before the glucose administration and 30 minutes, 60 minutes and 120 minutes after the glucose administration. Blood-sugar levels were measured using ACCU-CHEK Aviva (Roche Diagnostics). In the drawings below, for example, “26,34Cys GLP-1-disialo”, which is an oligosaccharide chain added GLP-1 peptide wherein amino acids at positions 26 and 34 of GLP-1 are each substituted with disialo oligosaccharide chain added Cys, is referred to as “C26,C34”, if necessary. The same holds true for other oligosaccharide chains and amino acid sites.
# Next, 18,36Cys GLP-1-disialo and GLP-1 were evaluated by OGTT using doses of 1/10 (0.9 nmol/kg) and 9 nmol/kg, respectively, and compared.
# T1 sequence (P22411 whole entry): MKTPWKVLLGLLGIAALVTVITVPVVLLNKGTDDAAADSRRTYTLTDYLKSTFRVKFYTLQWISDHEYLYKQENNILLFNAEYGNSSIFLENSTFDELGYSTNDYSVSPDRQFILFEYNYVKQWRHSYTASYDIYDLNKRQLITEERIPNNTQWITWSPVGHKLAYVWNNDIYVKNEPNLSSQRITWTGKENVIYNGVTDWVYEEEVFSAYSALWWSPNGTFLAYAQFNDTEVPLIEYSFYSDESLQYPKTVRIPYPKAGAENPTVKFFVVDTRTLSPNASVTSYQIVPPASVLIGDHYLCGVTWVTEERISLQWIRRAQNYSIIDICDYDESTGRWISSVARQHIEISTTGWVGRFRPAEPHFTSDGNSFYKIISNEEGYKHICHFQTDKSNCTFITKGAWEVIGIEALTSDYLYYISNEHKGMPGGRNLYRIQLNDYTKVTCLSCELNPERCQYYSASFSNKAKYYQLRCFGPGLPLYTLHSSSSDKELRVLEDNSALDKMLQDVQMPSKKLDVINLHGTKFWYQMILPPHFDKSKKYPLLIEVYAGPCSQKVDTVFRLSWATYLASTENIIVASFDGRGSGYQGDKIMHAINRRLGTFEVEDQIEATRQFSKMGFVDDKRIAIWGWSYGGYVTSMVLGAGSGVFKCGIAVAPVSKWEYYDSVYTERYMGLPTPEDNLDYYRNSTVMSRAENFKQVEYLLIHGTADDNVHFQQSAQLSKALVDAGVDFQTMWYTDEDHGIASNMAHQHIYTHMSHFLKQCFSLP
Compound,Relative Resistance [1],"effect of suppressing rise in blood-sugar levels (C57BL/6JJcl mice; 0.9 nmol/kg intraperitoneal, compared with GLP-1 at 9 nmol/kg, FIG. 5)","effect of suppressing rise in blood-sugar levels relative to that of GLP-1 (C57BL/6JJcl mice; OGTT, from doses giving almost equal effect (0.9 vs 9 nmol/kg))"
"CC[C@H](C)[C@H](NC(=O)[C@H](Cc1ccccc1)NC(=O)[C@H](CCC(=O)O)NC(=O)[C@H](CCCCN)NC(=O)[C@H](C)NC(=O)[C@H](C)NC(=O)[C@H](CCC(N)=O)NC(=O)CNC(=O)[C@H](CCC(=O)O)NC(=O)[C@H](CC(C)C)NC(=O)[C@H](Cc1ccc(O)cc1)NC(=O)[C@H](CSCC(=O)N[C@@H]1O[C@H](CO)[C@@H](O[C@@H]2O[C@H](CO)[C@@H](O[C@@H]3O[C@H](CO[C@H]4O[C@H](CO)[C@@H](O)[C@H](O)[C@@H]4O[C@@H]4O[C@H](CO)[C@@H](O[C@@H]5O[C@H](CO[C@]6(C(=O)O)C[C@H](O)[C@@H](NC(C)=O)[C@H]([C@H](O)[C@H](O)CO)O6)[C@H](O)[C@H](O)[C@H]5O)[C@H](O)[C@H]4NC(C)=O)[C@@H](O)[C@H](O[C@H]4O[C@H](CO)[C@@H](O)[C@H](O)[C@@H]4O[C@@H]4O[C@H](CO)[C@@H](O[C@@H]5O[C@H](CO[C@]6(C(=O)O)C[C@H](O)[C@@H](NC(C)=O)[C@H]([C@H](O)[C@H](O)CO)O6)[C@H](O)[C@H](O)[C@H]5O)[C@H](O)[C@H]4NC(C)=O)[C@@H]3O)[C@H](O)[C@H]2NC(C)=O)[C@H](O)[C@H]1NC(C)=O)NC(=O)[C@H](CO)NC(=O)[C@@H](NC(=O)[C@H](CC(=O)O)NC(=O)[C@H](CO)NC(=O)[C@@H](NC(=O)[C@H](Cc1ccccc1)NC(=O)[C@@H](NC(=O)CNC(=O)[C@H](CCC(=O)O)NC(=O)[C@H](C)NC(=O)[C@@H](N)Cc1c[nH]cn1)[C@@H](C)O)[C@@H](C)O)C(C)C)C(=O)N[C@@H](C)C(=O)N[C@@H](Cc1c[nH]c2ccccc12)C(=O)N[C@@H](CC(C)C)C(=O)N[C@H](C(=O)N[C@@H](CCCCN)C(=O)NCC(=O)N[C@@H](CSCC(=O)N[C@@H]1O[C@H](CO)[C@@H](O[C@@H]2O[C@H](CO)[C@@H](O[C@@H]3O[C@H](CO[C@H]4O[C@H](CO)[C@@H](O)[C@H](O)[C@@H]4O[C@@H]4O[C@H](CO)[C@@H](O[C@@H]5O[C@H](CO[C@]6(C(=O)O)C[C@H](O)[C@@H](NC(C)=O)[C@H]([C@H](O)[C@H](O)CO)O6)[C@H](O)[C@H](O)[C@H]5O)[C@H](O)[C@H]4NC(C)=O)[C@@H](O)[C@H](O[C@H]4O[C@H](CO)[C@@H](O)[C@H](O)[C@@H]4O[C@@H]4O[C@H](CO)[C@@H](O[C@@H]5O[C@H](CO[C@]6(C(=O)O)C[C@H](O)[C@@H](NC(C)=O)[C@H]([C@H](O)[C@H](O)CO)O6)[C@H](O)[C@H](O)[C@H]5O)[C@H](O)[C@H]4NC(C)=O)[C@@H]3O)[C@H](O)[C@H]2NC(C)=O)[C@H](O)[C@H]1NC(C)=O)C(=O)NCC(=O)O)C(C)C [Example 2, 18 and 36Cys-disialo oligosaccharide Chain Added GLP-1]",128.6,almost equal effect of suppressing rise in blood-sugar levels to that of GLP-1,about 10 times
"CC[C@H](C)[C@H](NC(=O)[C@H](Cc1ccccc1)NC(=O)[C@H](CCC(=O)O)NC(=O)[C@H](CCCCN)NC(=O)[C@H](C)NC(=O)[C@H](C)NC(=O)[C@H](CCC(N)=O)NC(=O)CNC(=O)[C@H](CCC(=O)O)NC(=O)[C@H](CC(C)C)NC(=O)[C@H](Cc1ccc(O)cc1)NC(=O)[C@H](CO)NC(=O)[C@H](CO)NC(=O)[C@@H](NC(=O)[C@H](CC(=O)O)NC(=O)[C@H](CO)NC(=O)[C@@H](NC(=O)[C@H](Cc1ccccc1)NC(=O)[C@@H](NC(=O)CNC(=O)[C@H](CCC(=O)O)NC(=O)[C@H](C)NC(=O)[C@@H](N)Cc1c[nH]cn1)[C@@H](C)O)[C@@H](C)O)C(C)C)C(=O)N[C@@H](CSCC(=O)N[C@@H]1O[C@H](CO)[C@@H](O[C@@H]2O[C@H](CO)[C@@H](O[C@@H]3O[C@H](CO[C@H]4O[C@H](CO)[C@@H](O)[C@H](O)[C@@H]4O[C@@H]4O[C@H](CO)[C@@H](O[C@@H]5O[C@H](CO[C@]6(C(=O)O)C[C@H](O)[C@@H](NC(C)=O)[C@H]([C@H](O)[C@H](O)CO)O6)[C@H](O)[C@H](O)[C@H]5O)[C@H](O)[C@H]4NC(C)=O)[C@@H](O)[C@H](O[C@H]4O[C@H](CO)[C@@H](O)[C@H](O)[C@@H]4O[C@@H]4O[C@H](CO)[C@@H](O[C@@H]5O[C@H](CO[C@]6(C(=O)O)C[C@H](O)[C@@H](NC(C)=O)[C@H]([C@H](O)[C@H](O)CO)O6)[C@H](O)[C@H](O)[C@H]5O)[C@H](O)[C@H]4NC(C)=O)[C@@H]3O)[C@H](O)[C@H]2NC(C)=O)[C@H](O)[C@H]1NC(C)=O)C(=O)N[C@@H](Cc1c[nH]c2ccccc12)C(=O)N[C@@H](CC(C)C)C(=O)N[C@H](C(=O)N[C@@H](CCCCN)C(=O)NCC(=O)N[C@@H](CSCC(=O)N[C@@H]1O[C@H](CO)[C@@H](O[C@@H]2O[C@H](CO)[C@@H](O[C@@H]3O[C@H](CO[C@H]4O[C@H](CO)[C@@H](O)[C@H](O)[C@@H]4O[C@@H]4O[C@H](CO)[C@@H](O[C@@H]5O[C@H](CO[C@]6(C(=O)O)C[C@H](O)[C@@H](NC(C)=O)[C@H]([C@H](O)[C@H](O)CO)O6)[C@H](O)[C@H](O)[C@H]5O)[C@H](O)[C@H]4NC(C)=O)[C@@H](O)[C@H](O[C@H]4O[C@H](CO)[C@@H](O)[C@H](O)[C@@H]4O[C@@H]4O[C@H](CO)[C@@H](O[C@@H]5O[C@H](CO[C@]6(C(=O)O)C[C@H](O)[C@@H](NC(C)=O)[C@H]([C@H](O)[C@H](O)CO)O6)[C@H](O)[C@H](O)[C@H]5O)[C@H](O)[C@H]4NC(C)=O)[C@@H]3O)[C@H](O)[C@H]2NC(C)=O)[C@H](O)[C@H]1NC(C)=O)C(=O)NCC(=O)O)C(C)C [Example 5, 30,36Cys-disialo oligosaccharide Chain Added GLP-1 Peptide]",7.5,,
36Cys-hyaluronic acid octasaccharide (HA-8) Added GLP-1 Peptide (HAEGTFTSDVSSYLEGQAAKEFIAWLVKGC(hyaluronic acid octasaccharide)G) [Example 9],3,,
"CC[C@H](C)[C@H](NC(=O)[C@H](Cc1ccccc1)NC(=O)[C@H](CCC(=O)O)NC(=O)[C@H](CCCCN)NC(=O)[C@H](C)NC(=O)[C@H](C)NC(=O)[C@H](CCC(N)=O)NC(=O)CNC(=O)[C@H](CCC(=O)O)NC(=O)[C@H](CC(C)C)NC(=O)[C@H](Cc1ccc(O)cc1)NC(=O)[C@H](CO)NC(=O)[C@H](CO)NC(=O)[C@@H](NC(=O)[C@H](CC(=O)O)NC(=O)[C@H](CO)NC(=O)[C@@H](NC(=O)[C@H](Cc1ccccc1)NC(=O)[C@@H](NC(=O)CNC(=O)[C@H](CCC(=O)O)NC(=O)[C@H](C)NC(=O)[C@@H](N)Cc1c[nH]cn1)[C@@H](C)O)[C@@H](C)O)C(C)C)C(=O)N[C@@H](C)C(=O)N[C@@H](Cc1c[nH]c2ccccc12)C(=O)N[C@@H](CC(C)C)C(=O)N[C@H](C(=O)N[C@@H](CCCCN)C(=O)NCC(=O)N[C@@H](CSCC(=O)N[C@@H]1O[C@H](CO)[C@@H](O)[C@H](O[C@@H]2O[C@H](C(=O)O)[C@@H](O[C@@H]3O[C@H](CO)[C@@H](O)[C@H](O[C@@H]4O[C@H](C(=O)O)[C@@H](O)[C@H](O)[C@H]4O)[C@H]3NC(C)=O)[C@H](O)[C@H]2O)[C@H]1NC(C)=O)C(=O)NCC(=O)O)C(C)C [Example 8, 36Cys-hyaluronic acid tetrasaccharide (HA-4) Added GLP-1 Peptide]",2.2,,
